Assay results taken from ChEMBL document CHEMBL5331099, “Chemical scaffold recycling: Structure-guided conversion of an HIV integrase inhibitor into a potent influenza virus RNA-dependent RNA polymerase inhibitor designed to minimize resistance potential” (Eur J Med Chem, 2023).

Assay: Binding affinity to Influenza A virus PA endonuclease I39T mutant assessed as dissociation constant by MST assay

O=C1c2c(O)c(=O)ccn2N([C@@H]2c3ccccc3SCc3c2ccc(F)c3F)C2COCCN12 (stereo partly drawn)
Kd: 9300 nM

COc1cnccc1CCNC(=O)c1nc(-c2ccccc2C(F)(F)F)[nH]c(=O)c1O
Kd: 32 nM

Nc1ncnc2c1ncn2CCNC(=O)c1nc(-c2ccccc2C(F)(F)F)[nH]c(=O)c1O
Kd: 16 nM
